Patent publication US20260257987A1, “COMPOUNDS AND METHOD FOR UPREGULATION OF P53 THROUGH INDUCTION OF MDM2 DEGRADATION” (Georgia State University Research Foundation, Inc., priority 2022, published 2026)
Entries after “also recorded” stand apart in the source; their conditions may differ. Like-named read-outs stand apart in the source and are kept apart here.

How the values were obtained:
EU-1 cells = experiment: Cytotoxicity test (CCK-8 cell viability) in EU-1 cells; format: cell-based; settings: for IC50: read-out: IC50 (μM) in EU-1 cells; for fold more potent than BW-AQ-238: compared to BW-AQ-238
Description: (§1) Cell viability was assessed by using Cell Counting Kit-8 (CCK-8, Dojindo, Japan). EU-1 and RS4;11 cells were cultured in RPMI-1640 medium (Corning, USA); MCF7 and HEK-293 cells were cultured in MEM (Corning, USA); and HeLa and H9c2 cells were cultured in high glucose DMEM (Corning, USA). All the culture mediums were supplemented with 10% fetal bovine serum (Corning, USA) and 100 unit/ml penicillin, and […] streptomycin. For cytotoxicity assays, cells were seeded into 96-well plates at a density of 3× 10^5 cells per well (50 μL). Compounds were dissolved in DMSO (molecular biology grade, Sigma-Aldrich, USA) to make 10 mM stock solutions, which were serially diluted with the culture medium to various concentrations (final DMSO concentration=0.5%). A culture medium (50 μL) containing the anthraquinone analog was added directly to the cell suspension in each well immediately after seeding. After incubation for 24 h at 37° C. in a humidified atmosphere with 5% CO2, 10 μL of CCK-8 solution was added to each well, and the plate was incubated for an additional 2-4 h at 37° C. before measuring the optical density at 450 nm with a microplate reader (PerkinElmer Victor 2, USA). The cell viability of each well was calculated as the percentage of the untreated control according to the manufacturer's manual. All tests were performed in triplicates, and IC50 values were determined with six concentrations by non-linear regression using GraphPad Prism 9.

[1] = Thiol (NAC) reactivity study by HPLC; format: physicochemical; settings: for order of reactivity with NAC (pseudo-first-order kinetics): 0.3 mM analog, 1.5 mM NAC
Description: HPLC was performed on Shimadzu LC-20AT HPLC system. Condition: mobile phase A: water with 0.05% TFA; B: acetonitrile with 0.05% TFA; gradient: 5-95% B, 0-10 min; […]; 5% B 12.1-15 min. Column: C18, 3.5 μm, 4.6×150 mm; UV detector monitored at 254 nm. For the thiol reactivity assay, a 0.3 mM solution of AQ-analogs was prepared in 0.5 mL PBS: MeOH (80:20) and warmed at 37° C. Next, 25 μL of NAC (from 30 mM stock solution in PBS) was added to the above solution. The resultant solution had final concentrations of 0.3 mM AQ-analogs and 1.5 mM NAC. 20 μL of the reaction mixture was injected into the HPLC at the designated time intervals. The area percentage values were determined via the integration of the area under the curve (AUC) of the chromatogram.

[2] = system: RS4;11 cells (wild-type p53); experiment: Cytotoxicity test of BW-AQ-365 (CCK-8) in RS4;11 cells; format: cell-based; settings: Homo sapiens; RS4; 11, 25000 cells/well, 48 h, positive control
Description: Cell viability was assessed by using Cell Counting Kit-8 (CCK-8, Dojindo, Japan). RS4;11 cells (wild-type p53) were cultured in RPMI-1640 medium (Corning, USA). The culture mediums were supplemented with 10% fetal bovine serum (Corning, USA) and 100 unit/ml penicillin, and […] streptomycin. […] Compounds were dissolved in DMSO (molecular biology grade, Sigma-Aldrich, USA) to make 10 mM stock solutions, which were serially diluted with the culture medium to various concentrations (final DMSO concentration=0.5%). A culture medium (50 μL) containing BW-AQ-365 was added directly to the cell suspension in each well immediately after seeding. After incubation for 24-72 h at 37° C. in a humidified atmosphere with 5% CO2, 10 μL of CCK-8 solution was added to each well, and the plate was incubated for an additional 2-4 h at 37° C. before measuring the optical density at 450 nm with a microplate reader (PerkinElmer Victor 2, USA). The cell viability of each well was calculated as the percentage of the untreated control according to the manufacturer's manual. All tests were performed in triplicates, and IC50 values were determined by non-linear regression using GraphPad Prism 9.0.

RS4;11 cells = experiment: Cytotoxicity test (CCK-8) in RS4;11 cells; format: cell-based; settings: Homo sapiens
Description: as §1, with “A culture medium (50 μL) containing the anthraquinone analog was added directly to the cell suspension in each well immediately after seeding.” left out

MCF7 cells = experiment: Cytotoxicity test (CCK-8) in MCF7 cells; format: cell-based; settings: Homo sapiens
Description: as §1, with “A culture medium (50 μL) containing the anthraquinone analog was added directly to the cell suspension in each well immediately after seeding.” left out

HeLa cells = experiment: Cytotoxicity test (CCK-8) in HeLa cells; format: cell-based; settings: for IC50: Homo sapiens, HeLa cells
Description: as §1

H9c2 cells = experiment: Cytotoxicity test (CCK-8) in H9c2 cells; format: cell-based; settings: Rattus norvegicus
Description: as §1, with “A culture medium (50 μL) containing the anthraquinone analog was added directly to the cell suspension in each well immediately after seeding.” left out

HEK-293 cells = experiment: Cytotoxicity test (CCK-8) in HEK-293 cells; format: cell-based; settings: Homo sapiens, HEK293
Description: as §1, with “A culture medium (50 μL) containing the anthraquinone analog was added directly to the cell suspension in each well immediately after seeding.” left out

[3] = system: MDM2 and p53 in EU-1 leukemia cells; experiment: Western blot of MDM2 and p53 in EU-1 leukemia cells; format: cell-based; settings: EU-1 cells; for MDM2 and p53 level by Western blot, dose and time dependence: GAPDH loading control
Description: Western Blot 5×10^6 cells were seeded in a 6-well plate and incubated for 12 h before the drug-loaded medium was added. The cells were harvested at designated time points, washed with cold PBS, and centrifuged at 1500 rpm×3 min. Then the cells were lysed by adding 100 μL of cold NP-40 buffer (supplied with complete™ protease Inhibitor tablet (Roche, USA)) and 1 mM PMSF (Thermo-Fisher, USA) on ice for 30 min. The cell lysates were centrifuged at 12500×g at 4° C. for 10 min, and the total protein concentration in the supernatant was measured with the BCA assay (Thermo-Fisher, USA). 30 μL of the cell lysate was mixed with 10 μL 4×Laemmli sample buffer and denatured at 95° C. for 5 min. The total protein concentration was adjusted with 1×Laemmli sample buffer. Equal amounts of protein sample were loaded onto a 4-15% gradient SDS-PAGE gel (Bio-rad, USA). After electrophoresis, the protein was transferred to the […] membrane (Bio-rad, USA) with the Trans-Blot Turbo system (Bio-rad, USA). The target protein was probed with the corresponding antibody using iBind Western Systems (Thermo-Fisher, USA), according to the manufacturer's manual. Antibody and dilution profile: MDM2 ((SMP14), 1:500 Santa Cruz, USA); p53 ((DO-1), 1:800, Santa Cruz, USA); GAPDH ((0411), 1:2000, Santa Cruz, USA) and HRP conjugated goat anti-mouse secondary antibody (1:2000, Bio-rad, USA). After incubation with Pierce ECL Plus Substrate (Thermo Scientific), chemiluminescent was detected and imaged with LSA^4000 (GE Healthcare, Fairfield, USA).

EU-1 ALL cells = settings: background; cited from earlier work
[4] = EU-1 cells, 24 h incubation, CCK-8
[5] = EU-1 cells, compared to BW-AQ-295

CC(=O)CCCOc1cccc2c1C(=O)c1c(OCCCC(C)=O)cc(NC(C)=O)cc1C2=O [BW-AQ-349, N-(9,10-dioxo-4,5-bis ((4-oxopentyl)oxy)-9,10-dihydroanthracen-2-yl)acetamide]
IC50 (EU-1 cells; EU-1, 24 h): > 100 µM
cytotoxicity in EU-1 cells, in words (EU-1 cells; EU-1 cells): lack of activity
stability in presence of NAC ([1]; 37° C. in PBS, HPLC): remained unchanged during the study duration (>400 min)
order of reactivity with NAC (pseudo-first-order kinetics) ([1]; 37° C. in PBS, HPLC): BW-AQ-350 >BW-AQ-353 >BW-AQ-295 ~ BW-AQ-354 >>BW-AQ-349

C#CC(N)=O [Propiolamide, reference compound]
IC50 (EU-1 cells; [4]): 33.5 ± 7.8 µM

COc1cccc2c1C(=O)c1c(O)c3c(c(O)c1C2=O)C[C@@](O)(C(=O)CO)C[C@@H]3O[C@H]1C[C@H](N)[C@H](O)[C@H](C)O1 [Doxorubicin, reference compound]
IC50 (EU-1 cells; [4]): 0.15 ± 0.02 µM
IC50 [2]: 53.1 ± 6.1 nM

C=CC(=O)Nc1cc(OCCCC(C)=O)c2c(c1)C(=O)c1cccc(OCCCC(C)=O)c1C2=O [BW-AQ-353, N-(9,10-dioxo-4,5-bis ((4-oxopentyl)oxy)-9,10-dihydroanthracen-2-yl) acrylamide]
IC50 (EU-1 cells; [4]): 6.21 ± 0.45 µM
fold decrease in potency / less potent compared to BW-AQ-295 (EU-1 cells; [5]): about 15 fold
order of reactivity with NAC (pseudo-first-order kinetics) ([1]; 37° C. in PBS, HPLC): BW-AQ-350 >BW-AQ-353 >BW-AQ-295 ~ BW-AQ-354 >>BW-AQ-349

C#CC(=O)Nc1cc(OCCCC(C)=O)c2c(c1)C(=O)c1cccc(OCCCC(C)=O)c1C2=O [BW-AQ-350, N-(9,10-dioxo-4,5-bis ((4-oxopentyl)oxy)-9,10-dihydroanthracen-2-yl) propiolamide]
IC50 (EU-1 cells; [4]): 0.19 µM
fold increase in potency compared to BW-AQ-295 (EU-1 cells; [5]): 2 fold
IC50 (RS4;11 cells): 520 ± 70 nM
IC50 (MCF7 cells): 4930 ± 450 nM
IC50 (HeLa cells): 4670 ± 250 nM
IC50 (H9c2 cells): ~300 nM
IC50 (HEK-293 cells): 2350 ± 690 nM
MDM2 and p53 level by Western blot, dose and time dependence [3]: induced decrease in MDM2 levels in a dose- and time-dependent fashion; also recorded: downregulate MDM2 and upregulate p53 in EU-1 cells in a time- and dose-dependent fashion; also recorded: downregulation of MDM2 and upregulation p53
reactivity towards thiol, in words [1]: high reactivity towards nucleophile such as thiol and amino acid
order of reactivity with NAC (pseudo-first-order kinetics) ([1]; 37° C. in PBS, HPLC): BW-AQ-350 >BW-AQ-353 >BW-AQ-295 ~ BW-AQ-354 >>BW-AQ-349

CC(=O)CCCCOc1cccc2c1C(=O)c1c(OCCCCC(C)=O)cc(NC(=O)CCl)cc1C2=O [BW-AQ-345, 2-chloro-N-(9,10-dioxo-4,5-bis ((5-oxohexyl)oxy)-9,10-dihydroanthracen-2-yl)acetamide]
IC50 (EU-1 cells; EU-1, 24 h): 0.79 ± 0.03 µM

O=C(CCl)Nc1cc(O)c2c(c1)C(=O)c1cccc(O)c1C2=O [BW-AQ-101, 2-chloro-N-(4,5-dihydroxy-9,10-dioxo-9,10-dihydroanthracen-2-yl)acetamide]
IC50 (EU-1 ALL cells): ~800 nM

CC(=O)CCCOc1cc(NC(=O)CCl)cc2c1C(=O)c1c(O)cccc1C2=O [BW-AQ-336, 2-chloro-N-(5-hydroxy-9,10-dioxo-4-((4-oxopentyl)oxy)-9,10-dihydroanthracen-2-yl)acetamide]
IC50 (EU-1 cells; [4]): 0.84 ± 0.02 µM
fold decrease in potency / less potent compared to BW-AQ-295 (EU-1 cells; [5]): about 2 fold

CC(=O)CCOc1cccc2c1C(=O)c1c(OCCC(C)=O)cc(NC(=O)CCl)cc1C2=O [BW-AQ-260, 2-chloro-N-(9,10-dioxo-4,5-bis(3-oxobutoxy)-9,10-dihydroanthracen-2-yl)acetamide]
IC50 (EU-1 cells; [4]): 0.45 µM
fold more potent than BW-AQ-238 (EU-1 cells; EU-1 cells): about 3 fold

O=C(CCl)Nc1cc(OCCO)c2c(c1)C(=O)c1cccc(OCCO)c1C2=O [BW-AQ-238, reference compound]
IC50 (EU-1 cells; [4]): 0.74 ± 0.12 µM

C=CS(=O)(=O)Nc1cc(OCCCC(C)=O)c2c(c1)C(=O)c1cccc(OCCCC(C)=O)c1C2=O [BW-AQ-354, N-(9,10-dioxo-4,5-bis ((4-oxopentyl)oxy)-9,10-dihydroanthracen-2-yl) ethenesulfonamide]
cytotoxicity in EU-1 cells, in words (EU-1 cells; EU-1 cells): more potent than BW-AQ-353
IC50 (EU-1 cells; [4]): 3.45 ± 0.45 µM
order of reactivity with NAC (pseudo-first-order kinetics) ([1]; 37° C. in PBS, HPLC): BW-AQ-350 >BW-AQ-353 >BW-AQ-295 ~ BW-AQ-354 >>BW-AQ-349

CC(=O)CCCOc1cccc2c1C(=O)c1c(OCCCC(C)=O)cc(NC(=O)CCl)cc1C2=O [BW-AQ-295, 2-chloro-N-(9,10-dioxo-4,5-bis ((4-oxopentyl)oxy)-9,10-dihydroanthracen-2-yl)acetamide]
IC50 (EU-1 cells; [4]): 0.43 ± 0.06 µM
fold more potent than BW-AQ-238 (EU-1 cells; EU-1 cells): about 3 fold
IC50 (RS4;11 cells): 690 ± 100 nM
IC50 (MCF7 cells): 950 ± 170 nM
fold less potency in HeLa cells compared to MCF7 cells (HeLa cells; HeLa vs MCF7): over 2 fold
IC50 (HeLa cells): 2310 ± 80 nM
IC50 (H9c2 cells): 1120 ± 200 nM
IC50 (HEK-293 cells): 1160 ± 340 nM
MDM2 and p53 level by Western blot, time course ([3]; 0.8 μM): decreased MDM2 and increased p53 level were observed from the 4-h time point
MDM2 level by Western blot ([3]; 2 μM, 6 h): decreased MDM2 to an almost undetectable level
MDM2 and p53 level by Western blot, dose and time dependence [3]: decrease MDM2 level and increase p53 level in a dose- and time-dependent manner; also recorded: downregulate MDM2 and upregulate p53 in EU-1 cells in a time- and dose-dependent fashion; also recorded: downregulation of MDM2 and upregulation p53
reactivity towards thiol, in words [1]: reacts with thiol species
order of reactivity with NAC (pseudo-first-order kinetics) ([1]; 37° C. in PBS, HPLC): BW-AQ-350 >BW-AQ-353 >BW-AQ-295 ~ BW-AQ-354 >>BW-AQ-349
